Experimental data published in ChEMBL document CHEMBL1201862, “PubChem BioAssay data set” (2004).
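96-well plates; 48 h exposure; 5 concentrations. Endpoints by linear interpolation between flanking doses. Not reached: highest tested concentration assigned. At the GI50, growth is halved.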 Activity calls are given as the source filed them. Rule as the data show it: active = GI50 up to about 1.1 µM and inactive = higher.

Assays:
Test in all cases: DTP human tumour cell line panel, 48 h
[1] = tested on: NCI-H23
[2] = tested on: NCI-H460
[3] = tested on: IGROV-1
[4] = tested on: HCT-15
[5] = tested on: A549
[6] = tested on: SR
[7] = tested on: MOLT-4
[8] = tested on: OVCAR-8
[9] = tested on: K562
[10] = tested on: MDA-MB-231
[11] = tested on: SF-268
[12] = tested on: EKVX
[13] = tested on: UACC-62
[14] = tested on: SNB-75
[15] = tested on: SF-295
[16] = tested on: A498
[17] = tested on: BT-549
[18] = tested on: SW-620
[19] = tested on: SF-539
[20] = tested on: OVCAR-3

Compound: COC1/C=C\OC2(C)Oc3c(C)c(O)c4c(O)c(c(CN(C)C)c(O)c4c3C2=O)NC(=O)/C(C)=C\C=C/C(C)C(O)C(C)C(O)C(C)C(OC(C)=O)C1C (stereo not given)
- GI50 [1]: 16 µM (inactive)
- GI50 [2]: 32.1 µM (inactive)
- GI50 [3]: 33.7 µM (inactive)
- GI50 [4]: 44.2 µM
- GI50 [5]: 27.4 µM (inactive)
- GI50 [6]: 15.7 µM (inactive)
- GI50 [7]: 15.5 µM (inactive)
- GI50 [8]: 30.6 µM (inactive)
- GI50 [9]: 22.6 µM (inactive)
- GI50 [10]: 28.8 µM (inactive)
- GI50 [11]: 33.3 µM (inactive)
- GI50 [12]: 12.5 µM (inactive)
- GI50 [13]: 18.3 µM (inactive)
- GI50 [14]: 39.3 µM (inactive)
- GI50 [15]: > 100 µM (inactive)
- GI50 [16]: > 100 µM (inactive)
- GI50 [17]: 31.2 µM (inactive)
- GI50 [18]: 12.2 µM (inactive)
- GI50 [19]: 17.5 µM (inactive)
- GI50 [20]: 15.4 µM (inactive)
